According to patent publication US20160120802A1, “ORALLY-DISINTEGRATING OSELTAMIVIR TABLET AND METHOD FOR PREPARING THE SAME” (priority 2013, published 2016):

Tested on: pigeons
Assay: Pigeons vomiting model
Conditions: intragastric, equivalent to 30 mg oseltamivir per kg
Procedure: 1. Experimental Animal: Healthy Pigeons (Both Males and Females were Operable), 350±50 g of Weights, Common Grades, and Purchased from a Breeding Base.
70 healthy pigeons were randomly divided into 7 groups and adaptively fed with normal diets for 1 week before the experiment. Diets were prohibited within 4 hrs before the experiment, the room temperature was maintained at between 22 and 24° C., and the feeding environment was kept clean and well ventilated. The pigeons were administered with drugs according to the following groups, the administration dosage corresponded to 30 mg oseltamivir per kg of the pigeon's weight, or the equivalent amount of the starch.
Contrast group A, one group, administered with the raw material of oseltamivir with a dosage equivalent to 30 mg of oseltamivir per kg of the pigeon's weight.
Contrast group B, one group, administered with the polyacrylic acid resin IV with a dosage equivalent to 30 mg of the starch per kg of the pigeon's weight.
Contrast group D, one group, administered with the commercial oseltamivir phosphate capsules manufactured by Roche with a dosage equivalent to 30 mg of oseltamivir per kg of the pigeon's weight.
Observation indexes: latent periods of vomiting (the period from the administration to the first vomiting), vomiting times (occurrences of the vomiting after the drug administration, each occurrence of the vomiting refers to the duration from neck stretching, mouth opening, shrugging, and abdominal contraction of the pigeons to recovery of the quiet state of the pigeons), and vomiting frequencies (referring to the times of neck stretching, mouth opening, shrugging, and abdominal contraction of the pigeons).
The pigeons in each group were taken drugs by intragastric administration with a dosage equivalent to 30 mg of oseltamivir per kg of the pigeon's weight. The latent periods of vomiting (min) after the intragastric administration, as well as the vomiting times and the vomiting frequency in 5 hrs after the intragastric administration were recorded.
In each group, the number of the vomiting pigeons (n) was calculated. For the vomiting pigeons (including vomiting with vomitus and dry vomiting in the absence of vomitus), the latent period of vomiting (min, x±s), the average vomit times, and the average vomit frequencies were calculated, and results were listed in the following table 2.

Structure (SMILES): CCOC(=O)C1=CC(OC(CC)CC)C(NC(C)=O)C(N)C1 (stereo not shown) [Contrast group A]
- Note (kind of vomiting): Seven times of vomiting
- Latent period for vomiting (vomiting pigeons, x ± s): 18.9 ± 5.4 min
- Average vomiting times (within 5 hrs) (within 5 hrs): 11.1
- Vomiting frequencies (within 5 hrs, x ± s): 15.8 ± 2.1 times
